Measurements: patent US11453683B1, “KRas G12D inhibitors” (Mirati Therapeutics, Inc., priority 2019, dated 2022)
Structures can show the parent of a compound that is named as a salt.

The compounds below were run on KRas G12D-mediated phosphorylation of ERK (assay: Inhibition of KRas G12D-mediated phosphorylation of ERK in AGS cells). Settings: Homo sapiens; AGS cells expressing G12D, 3 hours, phospho-ERK normalized to GAPDH.
Format: cell-based
How it was run: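 Fixed, methanol-permeabilized; phospho-ERK (Thr202/Tyr204) by in-cell immunofluorescence normalized to GAPDH. Percent of DMSO control, IC50 by 4-parameter fit.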

Question: With `O=C(O[C@@H]1CN2CCC[C@]2(COc2nc(N3C[C@H]4CC[C@@H](C3)N4)c3cnc(-c4cccc5cccc(Cl)c45)c(F)c3n2)C1)N1CCOCC1` [Example 436, (2S,7aR)-7a-(((4-((1R,5S)-3,8-diazabicyclo[3.2.1]octan-3-yl)-7-(8-chloronaphthalen-1-yl)-8-fluoropyrido[4,3-d]pyrimidin-2-yl)oxy)methyl)hexahydro-1H-pyrrolizin-2-yl morpholine-4-carboxylate] as the compound, how does the IC50 read?
Answer: 3.99 µM

Question: How did the IC50 turn out when `C#Cc1cccc2cc(O)cc(-c3ncc4c(N5C[C@H]6CC[C@@H](C5)N6)nc(OC[C@@]56CCCN5C[C@H](F)C6)nc4c3F)c12` [Example 243, 4-(4-((1R,5S)-3,8-diazabicyclo[3.2.1]octan-3-yl)-8-fluoro-2-(((2R,7aS)-2-fluorohexahydro-1H-pyrrolizin-7a-yl)methoxy)pyrido[4,3-d]pyrimidin-7-yl)-5-ethynylnaphthalen-2-ol] was run?
Answer: 0.0008 µM

Question: `Oc1cc(-c2ncc3c(N4CC5CCC(C4)N5)nc(OCC45CCCN4C(CF)CC5)nc3c2F)c2ccccc2c1` (mixture of isomers) [Example 384, 4-(4-((1R,5S)-3,8-diazabicyclo[3.2.1]octan-3-yl)-8-fluoro-2-((3-(fluoromethyl)tetrahydro-1H-pyrrolizin-7a(5H)-yl)methoxy)pyrido[4,3-d]pyrimidin-7-yl)naphthalen-2-ol (mixture of isomers)] was tested. Which IC50 did it give?
Answer: 0.398 µM

Question: Which IC50 does the source give for `Fc1c(-c2cccc3cccc(-c4c[nH]nn4)c23)ncc2c(N3C[C@H]4CC[C@@H](C3)N4)nc(OCC34CCCN3CCC4)nc12` [Example 180, 7-(8-(1H-1,2,3-triazol-4-yl)naphthalen-1-yl)-4-((1R,5S)-3,8-diazabicyclo[3.2.1]octan-3-yl)-8-fluoro-2-((hexahydro-1H-pyrrolizin-7a-yl)methoxy)pyrido[4,3-d]pyrimidine] here?
Answer: > 16.7 µM

Question: Which IC50 does the source give for `Cc1c(Cl)cc2[nH]ncc2c1-c1ncc2c(N3CC4CCC(C3)N4)nc(OC[C@@]34CCCN3C[C@H](F)C4)nc2c1F` (stereo in doubt) [Example 401, 4-((1R,5S)-3,8-diazabicyclo[3.2.1]octan-3-yl)-7-(6-chloro-5-methyl-1H-indazol-4-yl)-8-fluoro-2-((2-fluorotetrahydro-1H-pyrrolizin-7a(5H)-yl)methoxy)pyrido[4,3-d]pyrimidine] here?
Answer: 0.604 µM

Question: For `Fc1c(-c2cccc3ccccc23)ncc2c(N3C[C@H]4CC[C@@H](C3)N4)nc(OCC34CCCN3CCC4)nc12` [Example 186, 4-((1R,5S)-3,8-diazabicyclo[3.2.1]octan-3-yl)-8-fluoro-7-(naphthalen-1-yl)-2-((tetrahydro-1H-pyrrolizin-7a(5H)-yl)methoxy)pyrido[4,3-d]pyrimidine], which IC50 is on record?
Answer: 3.38 µM

Question: With `CN1CCC[C@H]1COc1nc(N2CC3CCC(Cl)(C2)N3)c2cnc(-c3cc(O)cc4ccccc34)c(F)c2n1` (stereo partly drawn) [Example 160, 4-(4-(1-chloro-3,8-diazabicyclo[3.2.1]octan-3-yl)-8-fluoro-2-(((S)-1-methylpyrrolidin-2-yl)methoxy)pyrido[4,3-d]pyrimidin-7-yl)naphthalen-2-ol bis(2,2,2-trifluoroacetate)] as the compound, how does the IC50 read?
Answer: 6.93 µM

Question: Which IC50 does the source give for `CN(C)C1(C)CN(c2nc(N3C[C@H]4CC[C@@H](C3)N4)c3cnc(-c4cccc5cccc(Cl)c45)c(F)c3n2)C1` [Example 127, 1-(4-((1R,5S)-3,8-diazabicyclo[3.2.1]octan-3-yl)-7-(8-chloronaphthalen-1-yl)-8-fluoropyrido[4,3-d]pyrimidin-2-yl)-N,N,3-trimethylazetidin-3-amine] here?
Answer: > 16.7 µM

Question: For `Cc1cccc2cccc(-c3ncc4c(N5C[C@H]6CC[C@@H](C5)N6)nc(OC[C@@H]5CCCN5C)nc4c3F)c12` [Example 15, 4-((1R,5S)-3,8-diazabicyclo[3.2.1]octan-3-yl)-8-fluoro-7-(8-methylnaphthalen-1-yl)-2-(((S)-1-methylpyrrolidin-2-yl)methoxy)pyrido[4,3-d]pyrimidine], which IC50 is on record?
Answer: > 16.7 µM

Question: Which IC50 does the source give for `CC1(C)CN2CCCC2(COc2nc(N3CC4CCC(C3)N4)c3cnc(-c4cccc5cccc(Cl)c45)c(F)c3n2)C1` [Example 228, 4-((1R,5S)-3,8-diazabicyclo[3.2.1]octan-3-yl)-7-(8-chloronaphthalen-1-yl)-2-((2,2-dimethyltetrahydro-1H-pyrrolizin-7a(5H)-yl)methoxy)-8-fluoropyrido[4,3-d]pyrimidine bis-2,2,2-trifluoroacetate] here?
Answer: 13.7 µM

Question: How did the IC50 turn out when `Cc1cc2[nH]ccc2c(-c2ncc3c(N4C[C@H]5CC[C@@H](C4)N5)nc(OCC45CCCN4CCC5)nc3c2F)c1C` [Example 250, 4-((1R,5S)-3,8-diazabicyclo[3.2.1]octan-3-yl)-7-(5,6-dimethyl-1H-indol-4-yl)-8-fluoro-2-((hexahydro-1H-pyrrolizin-7a-yl)methoxy)pyrido[4,3-d]pyrimidine] was run?
Answer: 7.48 µM

Question: How did the IC50 turn out when `Fc1c(-c2cccc3cccc(Cl)c23)ncc2c(N3CC4CCC(C3)N4)nc(OCC34CCCN3C[C@H](F)C4)nc12` (stereo partly drawn) [Example 226, 4-((1R,5S)-3,8-diazabicyclo[3.2.1]octan-3-yl)-7-(8-chloronaphthalen-1-yl)-8-fluoro-2-((2-fluorotetrahydro-1H-pyrrolizin-7a(5H)-yl)methoxy)pyrido[4,3-d]pyrimidine bis-hydrochloride] was run?
Answer: 6.75 µM

Question: Which IC50 does the source give for `COCCCOc1nc(N2C[C@H]3CC[C@@H](C2)N3)c2cnc(-c3cc(O)cc4ccccc34)c(F)c2n1` [Example 68, 4-(4-((1R,5S)-3,8-diazabicyclo[3.2.1]octan-3-yl)-8-fluoro-2-(3-methoxypropoxy)pyrido[4,3-d]pyrimidin-7-yl)naphthalen-2-ol] here?
Answer: 7.53 µM

Question: For `CCc1c(Cl)cccc1-c1ncc2c(N3C[C@H]4CC[C@@H](C3)N4)nc(OCC34CCCN3CCC4)nc2c1F` [Example 312, 4-((1R,5S)-3,8-diazabicyclo[3.2.1]octan-3-yl)-7-(3-chloro-2-ethylphenyl)-8-fluoro-2-((hexahydro-1H-pyrrolizin-7a-yl)methoxy)pyrido[4,3-d]pyrimidine], which IC50 is on record?
Answer: 1.88 µM

Question: Which IC50 does the source give for `COC(=O)NC[C@H]1CC[C@@]2(COc3nc(N4CC5CCC(C4)N5)c4cnc(-c5cccc6cccc(Cl)c56)c(F)c4n3)CCCN12` [Example 411, methyl ((7a-(((4-(3,8-diazabicyclo[3.2.1]octan-3-yl)-7-(8-chloronaphthalen-1-yl)-8-fluoropyrido[4,3-d]pyrimidin-2-yl)oxy)methyl)hexahydro-1H-pyrrolizin-3-yl)methyl)carbamate] here?
Answer: 0.745 µM

Question: With `CN1CCC[C@H]1COc1nc(N2C[C@H]3CC[C@@H](C2)N3)c2cnc(-c3cccc4c3C(C)(C)CC4)c(F)c2n1` [Example 161, 4-((1R,5S)-3,8-diazabicyclo[3.2.1]octan-3-yl)-7-(3,3-dimethyl-2,3-dihydro-1H-inden-4-yl)-8-fluoro-2-(((S)-1-methylpyrrolidin-2-yl)methoxy)pyrido[4,3-d]pyrimidine bis(2,2,2-trifluoroacetate)] as the compound, how does the IC50 read?
Answer: > 16.7 µM

Question: `CC(C)c1ccccc1-c1ncc2c(N3CC4CCC(C3)N4)nc(OCC34CCCN3C[C@H](F)C4)nc2c1F` (stereo partly drawn) [Example 348, 4-((1R,5S)-3,8-diazabicyclo[3.2.1]octan-3-yl)-8-fluoro-2-((2-fluorotetrahydro-1H-pyrrolizin-7a(5H)-yl)methoxy)-7-(2-isopropylphenyl)pyrido[4,3-d]pyrimidine] was tested. Which IC50 did it give?
Answer: 0.779 µM

Question: How did the IC50 turn out when `CC(C)N1CCC[C@H]1COc1nc(N2C[C@H]3CC[C@@H](C2)N3)c2cnc(-c3cccc4cccc(Cl)c34)c(F)c2n1` [Example 29, 4-((R,5S)-3,8-diazabicyclo[3.2.1]octan-3-yl)-7-(8-chloronaphthalen-1-yl)-8-fluoro-2-(((S)-1-isopropylpyrrolidin-2-yl)methoxy)pyrido[4,3-d]pyrimidine] was run?
Answer: 13.6 µM

Question: Which IC50 does the source give for `CCC#Cc1cccc2cccc(-c3ncc4c(N5C[C@H]6CC[C@@H](C5)N6)nc(OCC56CCCN5CCC6)nc4c3F)c12` [Example 242, 4-((1R,5S)-3,8-diazabicyclo[3.2.1]octan-3-yl)-7-(8-(but-1-yn-1-yl)naphthalen-1-yl)-8-fluoro-2-((tetrahydro-1H-pyrrolizin-7a(5H)-yl)methoxy)pyrido[4,3-d]pyrimidine] here?
Answer: > 16.7 µM

Question: Which IC50 does the source give for `CN(C)C1CN(c2nc(N3C[C@H]4CC[C@@H](C3)N4)c3cnc(-c4cccc5cccc(Cl)c45)c(F)c3n2)C1` [Example 122, 1-(4-((1R,5S)-3,8-diazabicyclo[3.2.1]octan-3-yl)-7-(8-chloronaphthalen-1-yl)-8-fluoropyrido[4,3-d]pyrimidin-2-yl)-N,N-dimethylazetidin-3-amine] here?
Answer: > 16.7 µM

Question: How did the IC50 turn out when `Fc1c(-c2c3ccccc3cc3[nH]ncc23)ncc2c(N3C[C@H]4CC[C@@H](C3)N4)nc(OCC34CCCN3CCC4)nc12` [Example 257, 4-(4-((1R,5S)-3,8-diazabicyclo[3.2.1]octan-3-yl)-8-fluoro-2-((hexahydro-1H-pyrrolizin-7a-yl)methoxy)pyrido[4,3-d]pyrimidin-7-yl)-1H-benzo[f]indazole] was run?
Answer: 0.531 µM

Question: How did the IC50 turn out when `CC(C)c1c(F)cccc1-c1ncc2c(N3C[C@H]4CC[C@@H](C3)N4)nc(OCC34CCCN3CCC4)nc2c1F` [Example 299, 4-((1R,5S)-3,8-diazabicyclo[3.2.1]octan-3-yl)-8-fluoro-7-(3-fluoro-2-isopropylphenyl)-2-((hexahydro-1H-pyrrolizin-7a-yl)methoxy)pyrido[4,3-d]pyrimidine] was run?
Answer: > 5.56 µM

Question: Which IC50 does the source give for `Nc1cccc(CCOc2nc(N3C[C@H]4CC[C@@H](C3)N4)c3cnc(-c4cc(O)cc5ccccc45)c(F)c3n2)n1` [Example 139, 4-(2-(2-(6-aminopyridin-2-yl)ethoxy)-4-((1R,5S)-3,8-diazabicyclo[3.2.1]octan-3-yl)-8-fluoropyrido[4,3-d]pyrimidin-7-yl)naphthalen-2-ol] here?
Answer: 5.25 µM

Question: With `Fc1c(-c2cccc3cccc(Cl)c23)ncc2c(N3C[C@H]4CC[C@@H](C3)N4)nc(OCC34CCCCN3CCC4)nc12` (stereo partly drawn) [Example 54, 4-((1R,5S)-3,8-diazabicyclo[3.2.1]octan-3-yl)-7-(8-chloronaphthalen-1-yl)-8-fluoro-2-((hexahydroindolizin-8a(1H)-yl)methoxy)pyrido[4,3-d]pyrimidine] as the compound, how does the IC50 read?
Answer: > 16.7 µM
